Experimental data as given in PubChem BioAssay (NCI).
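Exposure lasted 48 hours, with cells grown in 96-well plates and compounds tested at five concentrations. The concentration for 50% growth inhibition is given as GI50. TGI: concentration producing complete growth inhibition.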

Experiments:
Assay in all cases: NCI-60 cell line screen, 48 h
SF-295 CNS = tested on: SF-295 CNS
KM12 colon = tested on: KM12 colon
MCF7 breast = tested on: MCF7 breast
NCI-H522 lung = tested on: NCI-H522 lung
SR leukemia = tested on: SR leukemia
HS 578T breast = tested on: HS 578T breast
K-562 leukemia = tested on: K-562 leukemia
M14 melanoma = tested on: M14 melanoma
NCI-H226 lung = tested on: NCI-H226 lung
NCI-H460 lung = tested on: NCI-H460 lung
A549 NSCLC = tested on: A549 NSCLC
RPMI-8226 leukemia = tested on: RPMI-8226 leukemia
HOP-62 NSCLC = tested on: HOP-62 NSCLC
T-47D breast = tested on: T-47D breast
SK-MEL-2 melanoma = tested on: SK-MEL-2 melanoma
U251 CNS = tested on: U251 CNS
NCI/ADR-RES ovarian = tested on: NCI/ADR-RES ovarian
NCI-H23 lung = tested on: NCI-H23 lung
OVCAR-8 ovarian = tested on: OVCAR-8 ovarian
SF-268 CNS = tested on: SF-268 CNS
IGROV1 ovarian = tested on: IGROV1 ovarian
MALME-3M melanoma = tested on: MALME-3M melanoma
786-0 renal = tested on: 786-0 renal
BT-549 breast = tested on: BT-549 breast
SN12C renal = tested on: SN12C renal
SNB-19 CNS = tested on: SNB-19 CNS
UO-31 renal = tested on: UO-31 renal
LOX IMVI melanoma = tested on: LOX IMVI melanoma
HCC-2998 colon = tested on: HCC-2998 colon
UACC-257 melanoma = tested on: UACC-257 melanoma
TK-10 renal = tested on: TK-10 renal
HOP-92 NSCLC = tested on: HOP-92 NSCLC
COLO 205 colon = tested on: COLO 205 colon
UACC-62 melanoma = tested on: UACC-62 melanoma
HCT-116 colon = tested on: HCT-116 colon
EKVX NSCLC = tested on: EKVX NSCLC
RXF 393 renal = tested on: RXF 393 renal
OVCAR-5 ovarian = tested on: OVCAR-5 ovarian
PC-3 prostate = tested on: PC-3 prostate
OVCAR-3 ovarian = tested on: OVCAR-3 ovarian
SF-539 CNS = tested on: SF-539 CNS
A498 renal = tested on: A498 renal
MOLT-4 leukemia = tested on: MOLT-4 leukemia
SK-OV-3 ovarian = tested on: SK-OV-3 ovarian
MDA-MB-231 breast = tested on: MDA-MB-231 breast
SW-620 colon = tested on: SW-620 colon
OVCAR-4 ovarian = tested on: OVCAR-4 ovarian
CCRF-CEM leukemia = tested on: CCRF-CEM leukemia
SK-MEL-28 melanoma = tested on: SK-MEL-28 melanoma
HT29 colon = tested on: HT29 colon
HL-60(TB) leukemia = tested on: HL-60(TB) leukemia
HCT-15 colon = tested on: HCT-15 colon
SK-MEL-5 melanoma = tested on: SK-MEL-5 melanoma
SNB-75 CNS = tested on: SNB-75 CNS
MDA-MB-435 = tested on: MDA-MB-435
DU-145 prostate = tested on: DU-145 prostate

## CN(C)CCCOc1ccc(OCCCN(C)C)c2c1C(=O)c1ccccc1C2=O
SF-295 CNS
  GI50: 1710 nM
  TGI: 10600 nM
KM12 colon
  GI50: 961 nM
  TGI: 10600 nM
MCF7 breast
  GI50: 388 nM
  TGI: 10600 nM
NCI-H522 lung
  GI50: 381 nM
  TGI: 2210 nM
SR leukemia
  GI50: 524 nM
  TGI: 5050 nM
HS 578T breast
  GI50: 2050 nM
  TGI: 10500 nM
K-562 leukemia
  GI50: 706 nM
  TGI: 6420 nM
M14 melanoma
  GI50: 1600 nM
  TGI: 3490 nM
NCI-H226 lung
  GI50: 1020 nM
  TGI: 5540 nM
NCI-H460 lung
  GI50: 514 nM
  TGI: 11600 nM
A549 NSCLC
  GI50: 388 nM
  TGI: 11900 nM
RPMI-8226 leukemia
  GI50: 2050 nM
  TGI: 6550 nM
HOP-62 NSCLC
  GI50: 634 nM
  TGI: 3540 nM
T-47D breast
  GI50: 1360 nM
  TGI: 8300 nM
SK-MEL-2 melanoma
  GI50: 1260 nM
  TGI: 3340 nM
U251 CNS
  GI50: 682 nM
  TGI: 9020 nM
NCI/ADR-RES ovarian
  GI50: 33600 nM
  TGI: > 100000 nM
NCI-H23 lung
  GI50: 1020 nM
  TGI: 4270 nM
OVCAR-8 ovarian
  GI50: 1140 nM
  TGI: 12000 nM
SF-268 CNS
  GI50: 1320 nM
  TGI: 7280 nM
IGROV1 ovarian
  GI50: 1780 nM
  TGI: 14200 nM
MALME-3M melanoma
  GI50: 1110 nM
  TGI: 2730 nM
786-0 renal
  GI50: 1770 nM
  TGI: 10300 nM
BT-549 breast
  GI50: 1950 nM
  TGI: 4970 nM
SN12C renal
  GI50: 517 nM
  TGI: 11900 nM
SNB-19 CNS
  GI50: 941 nM
  TGI: 10000 nM
UO-31 renal
  GI50: 2640 nM
  TGI: 18300 nM
LOX IMVI melanoma
  GI50: 810 nM
  TGI: 10200 nM
HCC-2998 colon
  GI50: 1260 nM
  TGI: 6520 nM
UACC-257 melanoma
  GI50: 2380 nM
  TGI: 5420 nM
TK-10 renal
  GI50: 1710 nM
  TGI: 12500 nM
HOP-92 NSCLC
  GI50: 572 nM
  TGI: 4130 nM
COLO 205 colon
  GI50: 379 nM
  TGI: 1820 nM
UACC-62 melanoma
  GI50: 1890 nM
  TGI: 4240 nM
HCT-116 colon
  GI50: 379 nM
  TGI: 10300 nM
EKVX NSCLC
  GI50: 2300 nM
  TGI: 11000 nM
RXF 393 renal
  GI50: 1320 nM
  TGI: 3690 nM
OVCAR-5 ovarian
  GI50: 962 nM
  TGI: 5290 nM
PC-3 prostate
  GI50: 1480 nM
  TGI: 5150 nM
OVCAR-3 ovarian
  GI50: 1930 nM
  TGI: 8260 nM
SF-539 CNS
  GI50: 1570 nM
  TGI: 4110 nM
A498 renal
  GI50: 1380 nM
  TGI: 3320 nM
MOLT-4 leukemia
  GI50: 378 nM
  TGI: 5990 nM
SK-OV-3 ovarian
  GI50: 988 nM
  TGI: 4740 nM
MDA-MB-231 breast
  GI50: 908 nM
  TGI: 4630 nM
SW-620 colon
  GI50: 532 nM
  TGI: 11000 nM
OVCAR-4 ovarian
  GI50: 1400 nM
  TGI: 5180 nM
CCRF-CEM leukemia
  GI50: 930 nM
  TGI: 6950 nM
SK-MEL-28 melanoma
  GI50: 2010 nM
  TGI: 4450 nM
HT29 colon
  GI50: 382 nM
  TGI: 3580 nM
HL-60(TB) leukemia
  GI50: 2140 nM
  TGI: 6770 nM
HCT-15 colon
  GI50: 5450 nM
  TGI: 61500 nM
SK-MEL-5 melanoma
  GI50: 1860 nM
  TGI: 3560 nM
SNB-75 CNS
  GI50: 1510 nM
  TGI: 3720 nM
MDA-MB-435
  GI50: 1590 nM
  TGI: 3190 nM
DU-145 prostate
  GI50: 1140 nM
  TGI: 11800 nM
